{"source": "patent US7772216B2", "about": "“Protein kinase and phosphatase inhibitors and methods for designing them” (The Research Foundation of State University of New York, priority 2001, dated 2010)", "key": {"PC-3": {"tested_on": "PC-3", "assay": "NIH 60-tumor cell panel, PC-3", "assay_type": "cell-based", "details": "Homo sapiens, NIH prostate cancer cell line, read-out: growth inhibition IC50, PC-3", "text": "The initial non-peptide Src inhibitors have also shown very encouraging results in four different series of cell culture assays. 1) In the NIH 60-tumor cell panel assay, broad activity (as one would expect for a Src inhibitor) was seen against the tumor cell lines, including the prostate lines. […] 3) The Src inhibitors were compared to the cancer drugs etoposide, taxol, doxorubicin and cisplatin in ovarian tumors from three different patients and an abdominal carcinoma from another patient. […] 5) Two of the Src inhibitors were also tested for inhibition of ts v-Src stimulated LA25 cell growth. […] 6) Two of the Src inhibitors were also tested for inhibition of normal rat kidney cell growth. The results are shown in FIG. 16D and illustrate that the inhibitors are cytoprotective for normal cells."}, "NRK cells": {"tested_on": "NRK cells", "assay": "Normal rat kidney (NRK) cell growth", "assay_type": "cell-based", "experimental": "(§1) Active Src inhibitors can be studied in a set of side-by-side cell-based assays using normal rat kidney (NRK) cells and a temperature-sensitive pp60^v-Src transformant of this cell line (LA25). The LA25 transformant engages in anchorage- and serum-independent growth at the “permissive” temperature of 33° C. due to activation of pp60^v-src but not at the “non-permissive” temperature of 40° C. at which pp60^v-src is not activated (Li et al., 1996). The use of this pair of closely related cell lines for testing the Src inhibitors at both the permissive and non-permissive temperatures allows one to determine if a given Src inhibitor is blocking cell growth due to specific blockade of the Src signaling pathway, by a different mechanism or by a general cytotoxic effect.\n(§2) As shown in this graph the growth of the LA25 cells at the permissive temperature of 33° C. is inhibited by ca. 50% at a 25 μM concentration of 43-meta relative to the LA25 cell growth at the non-permissive 40° C. as a control. […] Since the 43-meta solutions were prepared with a low concentration of DMSO for solubilization, a DMSO control was also run at the same concentration."}, "pp60^c-src [1]": {"target": "T1, pp60^c-src (Homo sapiens, UniProt P12931)", "assay": "Cellular Mimetic Src assay (RR-SRC phosphorylation)"}, "LA25 cells": {"tested_on": "LA25 cells", "assay": "LA25 (ts pp60^v-src transformed NRK) cell growth", "assay_type": "cell-based, rat", "experimental": "as §1, §2"}, "p56 lck [2]": {"target": "T2, p56 lck (Homo sapiens, UniProt P06239)", "T2 sequence (P06239 whole entry, species assumed)": "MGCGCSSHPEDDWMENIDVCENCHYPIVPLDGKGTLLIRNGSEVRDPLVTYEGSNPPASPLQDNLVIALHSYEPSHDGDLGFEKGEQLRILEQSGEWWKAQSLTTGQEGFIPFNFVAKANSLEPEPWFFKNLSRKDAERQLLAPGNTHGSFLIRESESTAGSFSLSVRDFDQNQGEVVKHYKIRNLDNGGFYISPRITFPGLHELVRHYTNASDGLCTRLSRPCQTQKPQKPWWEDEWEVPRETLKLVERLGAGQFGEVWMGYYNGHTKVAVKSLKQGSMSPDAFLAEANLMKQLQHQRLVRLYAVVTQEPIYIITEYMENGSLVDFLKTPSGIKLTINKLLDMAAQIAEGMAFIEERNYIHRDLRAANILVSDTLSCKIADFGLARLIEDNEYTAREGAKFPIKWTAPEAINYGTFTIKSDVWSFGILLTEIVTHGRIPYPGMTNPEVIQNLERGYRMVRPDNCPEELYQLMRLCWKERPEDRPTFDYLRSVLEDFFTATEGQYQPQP", "assay": "p56 lck inhibition", "assay_type": "biochemical", "details": "% inhibition at 10 micromolar compound", "text": "(§3) Blanks for a particular enzyme indicate that inhibition was not found."}, "[3]": {"details": "SCID, mouse, in vivo, ip", "protocol": "These compounds were administered to SCID mice by intraperitoneal administration in tween80:EtOH."}, "EGFRTK": {"target": "EGFRTK (Homo sapiens, UniProt P00533)", "sequence (P00533 25-1210)": "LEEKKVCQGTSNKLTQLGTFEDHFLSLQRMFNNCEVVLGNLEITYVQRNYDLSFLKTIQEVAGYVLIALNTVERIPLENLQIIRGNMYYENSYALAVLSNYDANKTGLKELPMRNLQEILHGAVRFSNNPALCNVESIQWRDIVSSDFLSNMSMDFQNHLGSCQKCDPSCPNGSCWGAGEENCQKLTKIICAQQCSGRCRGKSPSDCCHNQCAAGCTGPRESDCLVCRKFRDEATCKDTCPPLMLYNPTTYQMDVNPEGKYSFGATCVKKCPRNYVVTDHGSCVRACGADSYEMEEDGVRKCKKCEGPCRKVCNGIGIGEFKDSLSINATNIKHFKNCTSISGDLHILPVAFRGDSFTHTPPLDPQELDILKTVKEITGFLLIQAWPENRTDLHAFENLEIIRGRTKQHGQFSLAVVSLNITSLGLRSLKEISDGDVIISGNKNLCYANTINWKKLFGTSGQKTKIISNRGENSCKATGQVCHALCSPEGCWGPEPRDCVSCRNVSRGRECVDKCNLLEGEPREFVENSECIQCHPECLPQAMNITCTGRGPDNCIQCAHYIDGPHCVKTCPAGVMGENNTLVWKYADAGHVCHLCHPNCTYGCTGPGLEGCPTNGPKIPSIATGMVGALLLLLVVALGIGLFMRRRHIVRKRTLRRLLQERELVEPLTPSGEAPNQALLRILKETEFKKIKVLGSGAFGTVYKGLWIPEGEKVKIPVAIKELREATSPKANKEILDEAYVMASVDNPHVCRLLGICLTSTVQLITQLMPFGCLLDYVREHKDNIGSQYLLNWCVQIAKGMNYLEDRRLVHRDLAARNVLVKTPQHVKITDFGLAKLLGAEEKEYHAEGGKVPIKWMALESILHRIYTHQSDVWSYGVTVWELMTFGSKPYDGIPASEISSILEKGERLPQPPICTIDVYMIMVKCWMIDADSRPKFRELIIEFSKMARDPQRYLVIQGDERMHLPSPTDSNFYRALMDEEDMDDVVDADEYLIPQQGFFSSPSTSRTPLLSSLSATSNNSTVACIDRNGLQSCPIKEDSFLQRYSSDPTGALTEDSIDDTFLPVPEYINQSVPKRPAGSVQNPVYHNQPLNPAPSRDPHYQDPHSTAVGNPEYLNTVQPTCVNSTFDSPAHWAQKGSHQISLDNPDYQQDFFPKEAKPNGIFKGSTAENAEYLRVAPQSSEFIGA", "assay": "EGFRTK inhibition", "assay_type": "biochemical", "details": "% inhibition at 10 micromolar compound", "text": "as §3"}, "pp60^c-src [4]": {"target": "T1, pp60^c-src", "details": "literature value, cited from earlier work"}, "PTP-1B": {"target": "T3, PTP-1B (Homo sapiens, UniProt P18031)", "T3 sequence (P18031 1-435)": "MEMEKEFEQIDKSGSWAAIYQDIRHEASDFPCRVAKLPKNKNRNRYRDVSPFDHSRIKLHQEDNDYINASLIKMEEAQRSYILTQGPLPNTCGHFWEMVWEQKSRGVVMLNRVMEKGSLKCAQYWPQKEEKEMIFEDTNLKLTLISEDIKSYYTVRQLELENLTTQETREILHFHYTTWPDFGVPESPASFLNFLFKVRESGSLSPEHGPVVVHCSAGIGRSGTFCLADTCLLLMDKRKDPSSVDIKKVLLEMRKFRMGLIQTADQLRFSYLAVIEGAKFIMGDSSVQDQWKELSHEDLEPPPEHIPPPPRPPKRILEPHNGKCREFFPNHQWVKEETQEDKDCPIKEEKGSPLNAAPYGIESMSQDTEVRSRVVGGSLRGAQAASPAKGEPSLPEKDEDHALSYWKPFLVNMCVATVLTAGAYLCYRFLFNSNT", "assay": "PTP-1B inhibition", "assay_type": "biochemical", "details": "% inhibition at 10 micromolar compound", "text": "as §3"}, "p56 lck [5]": {"target": "T2, p56 lck", "details": "analyzed with the tyrosine kinase p56^lck; cited from earlier work"}, "[6]": {"details": "read-out: % Inhibition of 2 mM RR-src at Inhibitor Concentration (100 μM)"}}, "note": "Read-outs that look alike come from different tables or passages of the source."}
{"smiles": "O=C(Nc1cccc(O)c1)c1cc2ccc(O)cc2cc1O", "note": "[Compound 43-meta]", "values": [{"measurement": "IC50", "setting": "PC-3", "value": 19, "unit": "µM"}, {"measurement": "inhibition of normal rat kidney (parent non-transformed) cell growth", "setting": "NRK cells", "value": "without inhibiting the normal growth of the parent non-transformed cells"}, {"measurement": "cell toxicity (basal growth of NRK and LA25 cells)", "setting": "NRK cells; concentration increased up to 400 μM", "value": "lack of cell toxicity"}, {"measurement": "IC50", "setting": "pp60^c-src [1]", "value": 18, "unit": "µM"}, {"measurement": "Ki", "setting": "pp60^c-src [1]; K1, Table V", "value": 10, "unit": "µM"}, {"measurement": "inhibition at 100 µM", "setting": "pp60^c-src [1]; [6]", "value": 89, "unit": "%"}, {"measurement": "inhibition of v-Src induced LA25 cell growth", "setting": "LA25 cells", "value": "specifically blocked the v-Src induced cell growth"}, {"measurement": "inhibition at 25 µM", "setting": "LA25 cells; Rattus norvegicus, NRK, 25 μM, permissive 33° C. relative to non-permissive 40° C.", "value": "~50", "unit": "%"}, {"measurement": "IC50", "setting": "LA25 cells; Rattus norvegicus, NRK, read-out: IC50 for blocking pp60^v-src stimulated cell proliferation", "value": "~25", "unit": "µM"}]}
{"smiles": "COc1cc(OC)c(CNC(=O)c2cc3cc(F)ccc3[nH]2)c(OC)c1", "note": "[Compound 1rr]", "values": [{"measurement": "p56 LcK @ 10 μm", "setting": "p56 lck [2]", "value": 12, "unit": "%"}]}
{"smiles": "O=C(NCc1cccc(O)c1)c1cc2cc(F)ccc2[nH]1", "note": "[Compound 1a]", "values": [{"measurement": "toxicity in mice (weight loss)", "setting": "[3]", "value": "less toxic in mice than compound 2k from Example 4"}]}
{"smiles": "O=C(Nc1ccccc1O)c1cc2cc(F)ccc2[nH]1", "note": "[Compound 1n]", "values": [{"measurement": "p56 LcK @ 10 μm", "setting": "p56 lck [2]", "value": 12, "unit": "%"}]}
{"smiles": "O=C(NCc1cccc(F)c1)c1cc2cc(F)ccc2[nH]1", "note": "[Compound 1z]", "values": [{"measurement": "EGFRTK @ 10 μm", "setting": "EGFRTK", "value": 26, "unit": "%"}, {"measurement": "melting point", "value": "239 to 241", "unit": "°C"}]}
{"smiles": "CCOc1cc(/C=C(\\C#N)C(N)=O)cc(CSc2ccccc2)c1O", "note": "[drawing 65, ST 638, reference compound]", "values": [{"measurement": "IC50", "setting": "pp60^c-src [4]; Table V, read-out: Lit. IC50", "value": 18, "unit": "µM"}, {"measurement": "inhibition at 100 µM", "setting": "pp60^c-src [1]; [6]", "value": 37, "unit": "%"}]}
{"smiles": "COc1ccc(NC(=O)c2cc3cc(F)ccc3[nH]2)cc1CO", "note": "[Compound 1cccc]", "values": [{"measurement": "EGFRTK @ 10 μm", "setting": "EGFRTK", "value": 19, "unit": "%"}, {"measurement": "PTP-1B @ 10 μm", "setting": "PTP-1B", "value": 20, "unit": "%"}]}
{"smiles": "Cc1cc(O)c2c(c1)C(=O)c1cc(O)cc(O)c1C2=O", "note": "[Emodin, reference compound]", "values": [{"measurement": "mode of inhibition with respect to ATP", "setting": "p56 lck [5]", "value": "ATP-competitive"}, {"measurement": "inhibition at 100 µM", "setting": "pp60^c-src [1]; read-out: % Inhibition at 100 μM (std. dev.)", "value": 22, "unit": "%"}]}
{"smiles": "O=C(NCc1ccc(CO)cc1)c1cc2cc(F)ccc2[nH]1", "note": "[Compound 1oooo]", "values": [{"measurement": "EGFRTK @ 10 μm", "setting": "EGFRTK", "value": 33, "unit": "%"}, {"measurement": "p56 LcK @ 10 μm", "setting": "p56 lck [2]", "value": 10, "unit": "%"}]}
{"smiles": "CCOc1cc(/C=C(\\C#N)C(N)=O)cc(CSc2ccccc2)c1O", "note": "[ST-638, reference compound]", "values": [{"measurement": "IC50", "setting": "pp60^c-src [4]; Table IX, read-out: IC50 (μM), Lit", "value": 18, "unit": "µM"}, {"measurement": "% Inhibition at 100 μM (std. dev.)", "setting": "pp60^c-src [1]; Table IX, hydroxynaphthalene derivatives and published inhibitors", "value": "37 (+/−5) %"}]}
{"smiles": "O=C(Nc1cc(O)cc(O)c1)c1cc2cc(F)ccc2[nH]1", "note": "[Compound 1r]", "values": [{"measurement": "p56 LcK @ 10 μm", "setting": "p56 lck [2]", "value": 11, "unit": "%"}]}
{"smiles": "O=C(Nc1cccc(O)c1)c1cc2cccc(O)c2cc1O", "note": "[Compound 45]", "values": [{"measurement": "IC50", "setting": "PC-3", "value": 15, "unit": "µM"}, {"measurement": "inhibition of normal rat kidney (parent non-transformed) cell growth", "setting": "NRK cells", "value": "without inhibiting the normal growth of the parent non-transformed cells"}, {"measurement": "IC50", "setting": "pp60^c-src [1]", "value": 170, "unit": "µM"}, {"measurement": "mode of inhibition with respect to ATP", "setting": "pp60^c-src [1]; increasing ATP concentration up to 1 mM", "value": 45, "unit": "NON-ATP"}, {"measurement": "inhibition at 100 µM", "setting": "pp60^c-src [1]; [6]", "value": 51, "unit": "%"}, {"measurement": "inhibition of v-Src induced LA25 cell growth", "setting": "LA25 cells", "value": "specifically blocked the v-Src induced cell growth"}]}
{"smiles": "O=C(NCc1ccc(OCc2ccccc2)c(O)c1)c1cc2cc(F)ccc2[nH]1", "note": "[Compound 1jjjj]", "values": [{"measurement": "PTP-1B @ 10 μm", "setting": "PTP-1B", "value": 15, "unit": "%"}]}
